Patent US7138404B2, “4-aminopyrimidine derivatives” (Hoffmann-La Roche Inc., priority 2001, dated 2006)

target: T1, rat mGlu 5a receptor (Rattus norvegicus, UniProt P31424); test: [Ca2+]i measurement (FLIPR) on mGlu 5a transfected EBNA cells, antagonist mode; type: cell-based; settings: rat mGlu 5a transiently transfected EBNA cells; Fluo 3-AM; tested against 10 μM glutamate as agonist
T1 construct: expressed in transfected cells; host or cells: EBNA cells (transient transfection)
Procedure: The pharmacological activity of the compounds was tested using the following method:
cDNA encoding rat mGlu 5a receptor was transiently transfected into EBNA cells using a procedure described by E. -J. Schlaeger and K. Christensen (Cytotechnology 1998, 30, 71–83). [Ca^2+]i measurements were performed on mGlu 5a transfected EBNA cells after incubation of the cells with Fluo 3-AM (obtainable by FLUKA, 0.5 μM final concentration) for 1 hour at 37° C. followed by 4 washes with assay buffer (DMEM supplemented with Hank's salt and 20 mM HEPES. [Ca^2+]i measurements were done using a fluorometric imaging plate reader (FLIPR, Molecular Devices Corporation, La Jolla, Calif., USA). When compounds were evaluated as antagonists they were tested against 10 μM glutamate as agonist.
The inhibition (antagonists) curves were fitted with a four parameter logistic equation giving IC50, and Hill coefficient using the iterative non linear curve fitting software Origin (Microcal Software Inc., Northampton, Mass., USA).

T1 sequence (P31424 21-1171 isoform P31424-2 limits assumed): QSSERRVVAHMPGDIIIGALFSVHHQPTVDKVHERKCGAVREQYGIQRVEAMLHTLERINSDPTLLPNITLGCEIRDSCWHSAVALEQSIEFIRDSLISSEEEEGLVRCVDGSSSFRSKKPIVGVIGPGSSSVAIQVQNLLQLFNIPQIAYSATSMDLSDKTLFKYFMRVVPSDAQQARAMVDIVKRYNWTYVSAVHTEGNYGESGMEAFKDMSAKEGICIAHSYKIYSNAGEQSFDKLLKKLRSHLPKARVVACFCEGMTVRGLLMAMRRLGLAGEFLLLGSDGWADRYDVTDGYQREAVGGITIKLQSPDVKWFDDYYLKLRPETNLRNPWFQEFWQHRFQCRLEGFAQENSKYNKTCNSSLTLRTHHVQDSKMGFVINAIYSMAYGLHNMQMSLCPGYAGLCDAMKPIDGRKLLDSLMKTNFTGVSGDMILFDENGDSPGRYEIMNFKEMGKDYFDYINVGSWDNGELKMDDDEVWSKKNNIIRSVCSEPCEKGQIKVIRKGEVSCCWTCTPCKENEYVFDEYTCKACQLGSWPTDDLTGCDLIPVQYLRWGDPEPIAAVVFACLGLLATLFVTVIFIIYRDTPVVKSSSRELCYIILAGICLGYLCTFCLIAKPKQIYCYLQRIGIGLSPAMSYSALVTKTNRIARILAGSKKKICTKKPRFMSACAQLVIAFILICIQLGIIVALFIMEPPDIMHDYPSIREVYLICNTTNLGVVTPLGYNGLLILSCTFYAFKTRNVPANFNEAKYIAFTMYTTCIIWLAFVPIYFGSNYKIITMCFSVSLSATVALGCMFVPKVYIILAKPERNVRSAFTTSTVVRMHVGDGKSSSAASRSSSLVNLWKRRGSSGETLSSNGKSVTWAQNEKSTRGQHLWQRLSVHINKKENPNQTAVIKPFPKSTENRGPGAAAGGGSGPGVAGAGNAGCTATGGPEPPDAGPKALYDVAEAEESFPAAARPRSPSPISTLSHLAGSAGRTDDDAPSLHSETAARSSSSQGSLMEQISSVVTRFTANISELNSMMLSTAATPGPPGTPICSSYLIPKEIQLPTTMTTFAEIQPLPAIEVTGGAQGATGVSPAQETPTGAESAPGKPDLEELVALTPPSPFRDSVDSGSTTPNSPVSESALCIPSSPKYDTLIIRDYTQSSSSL

| Compound | IC50 |
| --- | --- |
| CCOC(=O)CSc1ncc(Cc2cccn2C)c(N)n1 [Example 4, [4-Amino-5-(1-methyl-1H-pyrrol-2-ylmethyl)-pyrimidin-2-ylsulfanyl]-acetic acid ethyl ester] | 380 nM |
| CCOC(=O)CSc1ncc(-c2ccc(Cl)cc2Cl)c(N)n1 [Example 5, [4-Amino-5-(2,4-dichloro-phenyl)-pyrimidin-2-ylsulfanyl]-acetic acid ethyl ester] | 3850 nM |
| C#CCSc1ncc(Cc2cccs2)c(N)n1 [Example 8, 2-Prop-2-ynylsulfanyl-5-thiophen-2-ylmethyl-pyrimidin-4-ylamine] | 1390 nM |
| C=CCSc1ncc(Cc2cccs2)c(N)n1 [Example 9, 2-Allylsulfanyl-5-thiophen-2-ylmethyl-pyrimidin-4-ylamine] | 2790 nM |
| Nc1nc(SCc2ncon2)ncc1Cc1cccs1 [Example 11, 2-([1,2,4]Oxadiazol-3-ylmethylsulfanyl)-5-thiophen-2-ylmethyl-pyrimidin-4-ylamine] | 400 nM |
| CCOC(=O)CSc1ncc(Cc2ccsc2)c(N)n1 [Example 12, (4-Amino-5-thiophen-3-ylmethyl-pyrimidin-2-ylsulfanyl)-acetic acid ethyl ester] | 180 nM |
| CCOC(=O)CSc1ncc(C(=O)OCC)c(N)n1 [Example 19, 4-Amino-2-ethoxycarbonylmethylsulfanyl-pyrimidine-5-carboxylic acid ethyl ester] | 270 nM |
| CCNc1nc(SCC(=O)OCC)ncc1Cc1cccs1 [Example 21, (4-Ethylamino-5-thiophen-2-ylmethyl-pyrimidin-2-ylsulfanyl)-acetic acid ethyl ester] | 600 nM |
| CC1CC1COC(=O)CSc1ncc(Cc2ccccc2)c(N)n1 (centres unmarked) [Example 24, (4-Amino-5-benzyl-pyrimidin-2-ylsulfanyl)-acetic acid 2-methyl-cyclopropylmethyl ester] | 630 nM |
| Nc1nc(SCC(=O)OCC2CCC2)ncc1Cc1ccccc1 [Example 25, (4-Amino-5-benzyl-pyrimidin-2-ylsulfanyl)-acetic acid cyclobutylmethyl ester] | 1460 nM |
| Nc1nc(SCC(=O)OCC2CC2)ncc1Cc1ccccc1 [Example 29, (4-Amino-5-benzyl-pyrimidin-2-ylsulfanyl)-acetic acid cyclopropylmethyl ester] | 200 nM |

Next, values leading:

| IC50 | Compound |
| --- | --- |
| 180 nM | CCOC(=O)CSc1ncc(Cc2ccc(Br)cc2)c(N)n1 [Example 6, [4-Amino-5-(4-bromo-benzyl)-pyrimidin-2-ylsulfanyl]-acetic acid ethyl ester] |
| 160 nM | CCOC(=O)CSc1ncc(Cc2ccoc2)c(N)n1 [Example 13, (4-Amino-5-furan-3-ylmethyl-pyrimidin-2-ylsulfanyl)-acetic acid ethyl ester] |
| 160 nM | CCOC(=O)CSc1ncc(Cc2cccs2)c(NCC(C)C)n1 [Example 31] |
| 140 nM | CCOC(=O)CSc1ncc(Cc2ccccc2)c(N)n1 [Example 3, (4-Amino-5-benzyl-pyrimidin-2-ylsulfanyl)-acetic acid ethyl ester] |
| 120 nM | C=CCOC(=O)CSc1ncc(Cc2ccccc2)c(N)n1 [Example 22, (4-Amino-5-benzyl-pyrimidin-2-ylsulfanyl)-acetic acid allyl ester] |

system: not given; test: not given; settings: not given

| melting point | Compound |
| --- | --- |
| 94 °C | Nc1nc(SCc2nc(C3CC3)no2)ncc1Cc1ccccc1 [Example 33, 5-Benzyl-2-(3-cyclopropyl-[1,2,4]oxadiazol-5-ylmethylsulfanyl)-pyrimidin-4-ylamine] |
